Measured values taken from ChEMBL document CHEMBL1201862, “PubChem BioAssay data set” (2004).
The source made the active and inactive calls.

Key:
[1] = molecular target: Homeodomain-interacting protein kinase 4 (Homo sapiens, UniProt Q8NE63); assay type: functional
[2] = molecular target: Serine/threonine-protein kinase PLK4 (Homo sapiens, UniProt O00444); assay type: functional;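 further: PLK4 measured as one member of a kinome-wide kinase profiling panel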
[3] = molecular target: Serine/threonine-protein kinase pim-2 (Homo sapiens, UniProt Q9P1W9); assay type: functional;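 further: value comes from a broad kinase panel profiling study in which PIM2 was one of the panel members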
[4] = molecular target: Calcium/calmodulin-dependent protein kinase type II subunit gamma (Homo sapiens, UniProt Q13555); assay type: functional
[5] = molecular target: Tyrosine-protein kinase Fer (Homo sapiens, UniProt P16591); assay type: functional;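 further: FER tested as one member of a kinome panel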
[6] = molecular target: Serine/threonine-protein kinase pim-3 (Homo sapiens, UniProt Q86V86); assay type: functional;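 further: value obtained as one member of a broad kinase panel profiling effort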
[7] = molecular target: Mast/stem cell growth factor receptor Kit (Homo sapiens, UniProt P10721); assay type: functional;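 further: KIT entry within a kinase panel assay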
[8] = molecular target: Testis-specific serine/threonine-protein kinase 2 (Homo sapiens, UniProt Q96PF2); assay type: functional;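 further: part of the Navigating the Kinome panel, target entry STK22B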
[9] = molecular target: Mitogen-activated protein kinase kinase kinase 20 (Homo sapiens, UniProt Q9NYL2); assay type: functional
[10] = molecular target: T1, Replicative DNA helicase DnaB (Mycobacterium tuberculosis, UniProt P9WMR3); experiment: DnaB intein splicing inhibitors, dose response, biochemical, cell-free fluorescence (AID 449749); assay type: functional
T1 sequence (P9WMR3 whole entry): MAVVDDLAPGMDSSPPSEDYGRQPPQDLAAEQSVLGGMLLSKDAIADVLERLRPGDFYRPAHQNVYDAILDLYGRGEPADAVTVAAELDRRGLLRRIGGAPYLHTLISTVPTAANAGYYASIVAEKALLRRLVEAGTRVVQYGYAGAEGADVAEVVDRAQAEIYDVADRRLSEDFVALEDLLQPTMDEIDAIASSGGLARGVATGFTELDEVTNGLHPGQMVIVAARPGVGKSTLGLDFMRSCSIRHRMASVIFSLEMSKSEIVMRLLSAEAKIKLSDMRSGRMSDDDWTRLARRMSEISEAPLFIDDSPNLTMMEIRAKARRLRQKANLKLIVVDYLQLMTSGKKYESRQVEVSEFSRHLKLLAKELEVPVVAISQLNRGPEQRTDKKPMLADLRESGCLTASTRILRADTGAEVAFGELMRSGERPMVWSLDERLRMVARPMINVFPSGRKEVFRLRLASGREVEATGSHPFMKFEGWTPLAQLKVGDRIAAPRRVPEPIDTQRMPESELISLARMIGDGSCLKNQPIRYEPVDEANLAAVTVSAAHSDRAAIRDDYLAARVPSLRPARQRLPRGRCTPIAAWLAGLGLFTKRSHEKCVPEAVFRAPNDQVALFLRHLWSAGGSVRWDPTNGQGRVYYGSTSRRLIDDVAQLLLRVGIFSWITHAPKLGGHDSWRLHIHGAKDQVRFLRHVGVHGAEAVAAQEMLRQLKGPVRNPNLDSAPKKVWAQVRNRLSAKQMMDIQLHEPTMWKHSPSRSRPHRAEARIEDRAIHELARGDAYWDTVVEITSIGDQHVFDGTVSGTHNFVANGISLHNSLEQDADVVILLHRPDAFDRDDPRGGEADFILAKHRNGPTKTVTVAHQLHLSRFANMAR

Hexokinase HKDC1 = molecular target: T2, Hexokinase HKDC1 (Homo sapiens, UniProt Q2TB90); experiment: inhibition of HKDC1 glucose phosphorylation – biochemical, W721R variant, dose response (AID 504729); assay type: functional
T2 sequence (Q2TB90 whole entry): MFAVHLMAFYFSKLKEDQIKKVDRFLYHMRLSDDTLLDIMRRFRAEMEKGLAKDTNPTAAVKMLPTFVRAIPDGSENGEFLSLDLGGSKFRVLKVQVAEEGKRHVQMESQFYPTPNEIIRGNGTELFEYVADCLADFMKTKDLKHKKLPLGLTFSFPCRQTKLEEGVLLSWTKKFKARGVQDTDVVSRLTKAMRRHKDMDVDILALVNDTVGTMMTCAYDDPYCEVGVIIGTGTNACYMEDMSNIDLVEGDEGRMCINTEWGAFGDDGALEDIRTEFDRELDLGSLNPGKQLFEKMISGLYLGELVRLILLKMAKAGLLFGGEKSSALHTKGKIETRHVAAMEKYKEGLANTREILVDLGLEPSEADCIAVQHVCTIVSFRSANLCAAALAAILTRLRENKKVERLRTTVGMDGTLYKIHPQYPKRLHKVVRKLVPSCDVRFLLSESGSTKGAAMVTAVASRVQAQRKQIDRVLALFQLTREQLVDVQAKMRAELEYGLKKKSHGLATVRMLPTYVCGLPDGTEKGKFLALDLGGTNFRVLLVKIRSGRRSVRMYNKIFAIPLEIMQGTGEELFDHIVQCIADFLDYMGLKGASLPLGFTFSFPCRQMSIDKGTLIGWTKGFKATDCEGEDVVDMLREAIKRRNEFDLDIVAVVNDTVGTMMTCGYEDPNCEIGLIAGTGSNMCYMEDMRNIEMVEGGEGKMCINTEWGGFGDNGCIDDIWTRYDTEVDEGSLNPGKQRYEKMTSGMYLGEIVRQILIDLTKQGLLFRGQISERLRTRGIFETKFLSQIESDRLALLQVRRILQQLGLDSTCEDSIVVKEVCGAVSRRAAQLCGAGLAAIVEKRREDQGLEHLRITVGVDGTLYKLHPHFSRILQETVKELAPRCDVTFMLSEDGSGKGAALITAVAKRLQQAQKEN

[11] = molecular target: T3, Tyrosyl-DNA phosphodiesterase 2 (Homo sapiens, UniProt O95551); experiment: potency against TDP2 phosphodiesterase activity – biochemical, epi absorbance, IC50, dose response (AID 743297)
T3 sequence (O95551 whole entry): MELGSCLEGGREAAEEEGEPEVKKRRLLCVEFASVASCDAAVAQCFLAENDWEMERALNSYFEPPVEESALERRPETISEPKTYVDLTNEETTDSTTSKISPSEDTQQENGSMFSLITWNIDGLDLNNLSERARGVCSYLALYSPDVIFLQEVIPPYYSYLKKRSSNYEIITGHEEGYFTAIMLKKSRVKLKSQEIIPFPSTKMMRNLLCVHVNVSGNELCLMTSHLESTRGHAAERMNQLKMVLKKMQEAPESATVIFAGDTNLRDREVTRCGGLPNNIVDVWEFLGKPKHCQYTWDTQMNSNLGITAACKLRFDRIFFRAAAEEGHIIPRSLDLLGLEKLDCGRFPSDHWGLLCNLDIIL

[12] = luciferase reporter signal suppression in cells – H4 neuroglioma cells, luminescence, dose response (AID 1990); assay type: functional, cell-based
[13] = Luminescence Cell-Based Dose Response HTS to Identify Inhibitors of 5'UTR Stem-Loop Driven Prion Protein mRNA Translation in H4 Neuroglioblastoma Cells. [Related pubchem assays: 1827 (Project Summary), 1813 (Primary HTS)]; assay type: functional
[14] = alpha-synuclein stem-loop luciferase translation blockers – H4 neuroglioma cells, luminescence, confirmation (AID 1988); assay type: functional, cell-based

Chain of Calcium/calmodulin-dependent protein kinase type II subunit gamma (Q13555 whole entry): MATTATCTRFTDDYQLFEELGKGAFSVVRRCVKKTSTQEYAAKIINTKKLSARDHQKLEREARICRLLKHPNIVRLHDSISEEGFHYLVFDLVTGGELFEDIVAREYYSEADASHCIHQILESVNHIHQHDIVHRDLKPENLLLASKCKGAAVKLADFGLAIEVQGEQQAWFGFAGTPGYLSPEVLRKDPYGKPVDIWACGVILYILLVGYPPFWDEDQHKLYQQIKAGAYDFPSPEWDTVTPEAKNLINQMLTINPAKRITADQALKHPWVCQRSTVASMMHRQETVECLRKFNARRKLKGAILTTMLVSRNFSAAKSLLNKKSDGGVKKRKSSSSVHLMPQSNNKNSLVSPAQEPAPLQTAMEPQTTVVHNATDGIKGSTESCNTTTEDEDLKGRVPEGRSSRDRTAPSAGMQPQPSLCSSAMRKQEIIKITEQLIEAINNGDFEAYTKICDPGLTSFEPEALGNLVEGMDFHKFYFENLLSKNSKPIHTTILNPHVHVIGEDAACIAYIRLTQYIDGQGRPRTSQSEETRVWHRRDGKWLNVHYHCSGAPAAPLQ
Chain of Homeodomain-interacting protein kinase 4 (Q8NE63 whole entry): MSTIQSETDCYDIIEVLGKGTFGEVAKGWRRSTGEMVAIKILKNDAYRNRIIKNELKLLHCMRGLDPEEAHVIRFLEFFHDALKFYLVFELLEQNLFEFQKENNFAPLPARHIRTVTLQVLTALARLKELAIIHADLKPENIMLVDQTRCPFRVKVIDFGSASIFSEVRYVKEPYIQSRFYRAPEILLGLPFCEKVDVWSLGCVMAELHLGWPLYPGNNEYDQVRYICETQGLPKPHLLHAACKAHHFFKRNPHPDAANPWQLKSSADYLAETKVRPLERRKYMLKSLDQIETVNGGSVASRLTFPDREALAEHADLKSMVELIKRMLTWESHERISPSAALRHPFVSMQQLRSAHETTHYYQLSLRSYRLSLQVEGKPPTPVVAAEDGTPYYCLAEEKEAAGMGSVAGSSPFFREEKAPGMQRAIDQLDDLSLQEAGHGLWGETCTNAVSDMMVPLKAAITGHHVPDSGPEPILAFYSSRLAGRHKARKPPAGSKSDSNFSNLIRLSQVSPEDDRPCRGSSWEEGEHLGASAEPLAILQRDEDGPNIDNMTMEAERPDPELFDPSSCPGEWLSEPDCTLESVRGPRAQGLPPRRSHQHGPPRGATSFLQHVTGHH
Chain of Serine/threonine-protein kinase PLK4 (O00444 whole entry): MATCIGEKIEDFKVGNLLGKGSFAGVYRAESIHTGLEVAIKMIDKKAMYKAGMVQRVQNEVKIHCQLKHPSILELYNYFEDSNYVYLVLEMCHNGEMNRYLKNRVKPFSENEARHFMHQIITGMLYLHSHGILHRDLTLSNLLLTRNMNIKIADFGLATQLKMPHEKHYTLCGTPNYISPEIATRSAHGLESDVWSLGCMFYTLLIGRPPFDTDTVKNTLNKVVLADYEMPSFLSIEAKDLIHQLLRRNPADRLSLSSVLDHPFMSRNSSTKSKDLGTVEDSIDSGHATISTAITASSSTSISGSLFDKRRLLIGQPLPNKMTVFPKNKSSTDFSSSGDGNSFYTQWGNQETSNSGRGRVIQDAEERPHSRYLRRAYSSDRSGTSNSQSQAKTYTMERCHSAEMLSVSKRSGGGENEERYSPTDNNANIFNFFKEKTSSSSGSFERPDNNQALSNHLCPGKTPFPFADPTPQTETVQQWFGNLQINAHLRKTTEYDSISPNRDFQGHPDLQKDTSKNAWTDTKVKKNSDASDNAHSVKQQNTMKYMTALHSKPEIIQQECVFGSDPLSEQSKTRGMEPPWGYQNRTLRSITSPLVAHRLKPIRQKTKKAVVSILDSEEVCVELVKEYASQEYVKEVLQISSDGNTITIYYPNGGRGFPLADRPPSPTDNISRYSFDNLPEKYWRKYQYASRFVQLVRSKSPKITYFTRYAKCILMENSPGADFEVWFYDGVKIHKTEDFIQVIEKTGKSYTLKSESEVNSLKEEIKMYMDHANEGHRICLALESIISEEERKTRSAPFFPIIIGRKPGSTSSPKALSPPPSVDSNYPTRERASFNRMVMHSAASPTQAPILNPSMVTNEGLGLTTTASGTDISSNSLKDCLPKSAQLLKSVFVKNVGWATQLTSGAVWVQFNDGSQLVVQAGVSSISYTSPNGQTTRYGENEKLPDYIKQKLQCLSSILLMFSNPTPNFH
Chain of Testis-specific serine/threonine-protein kinase 2 (Q96PF2 whole entry): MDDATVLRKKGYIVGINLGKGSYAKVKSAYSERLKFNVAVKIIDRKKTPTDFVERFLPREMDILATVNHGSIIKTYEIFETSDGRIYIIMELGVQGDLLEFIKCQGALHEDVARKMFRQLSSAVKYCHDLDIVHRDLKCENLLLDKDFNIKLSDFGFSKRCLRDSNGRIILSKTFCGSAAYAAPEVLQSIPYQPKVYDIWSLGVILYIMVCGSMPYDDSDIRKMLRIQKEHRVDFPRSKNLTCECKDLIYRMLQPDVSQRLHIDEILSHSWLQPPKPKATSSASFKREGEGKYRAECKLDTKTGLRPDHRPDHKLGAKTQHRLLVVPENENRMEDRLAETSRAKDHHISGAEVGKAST
Chain of Mitogen-activated protein kinase kinase kinase 20 (Q9NYL2 whole entry): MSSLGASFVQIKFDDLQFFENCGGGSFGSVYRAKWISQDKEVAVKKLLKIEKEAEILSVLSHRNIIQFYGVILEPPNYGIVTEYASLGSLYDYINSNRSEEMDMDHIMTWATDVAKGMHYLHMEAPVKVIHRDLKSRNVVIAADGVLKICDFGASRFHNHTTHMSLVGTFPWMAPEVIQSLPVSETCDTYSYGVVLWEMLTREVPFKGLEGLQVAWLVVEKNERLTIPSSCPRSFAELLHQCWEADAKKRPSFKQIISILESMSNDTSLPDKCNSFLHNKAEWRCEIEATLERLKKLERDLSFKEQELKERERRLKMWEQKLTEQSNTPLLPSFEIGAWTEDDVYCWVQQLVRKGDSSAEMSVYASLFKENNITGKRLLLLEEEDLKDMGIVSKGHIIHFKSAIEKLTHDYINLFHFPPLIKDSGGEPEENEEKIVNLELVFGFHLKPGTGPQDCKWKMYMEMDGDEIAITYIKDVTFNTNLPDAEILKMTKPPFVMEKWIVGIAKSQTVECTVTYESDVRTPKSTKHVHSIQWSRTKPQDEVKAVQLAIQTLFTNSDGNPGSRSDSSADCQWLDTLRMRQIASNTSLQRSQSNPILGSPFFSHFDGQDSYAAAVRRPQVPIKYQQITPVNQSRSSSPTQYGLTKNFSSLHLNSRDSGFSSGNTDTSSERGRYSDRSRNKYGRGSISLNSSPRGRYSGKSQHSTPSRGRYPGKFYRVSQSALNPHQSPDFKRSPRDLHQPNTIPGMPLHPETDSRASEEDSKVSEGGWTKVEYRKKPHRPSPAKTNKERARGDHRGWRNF
Chain of Serine/threonine-protein kinase pim-2 (Q9P1W9 whole entry): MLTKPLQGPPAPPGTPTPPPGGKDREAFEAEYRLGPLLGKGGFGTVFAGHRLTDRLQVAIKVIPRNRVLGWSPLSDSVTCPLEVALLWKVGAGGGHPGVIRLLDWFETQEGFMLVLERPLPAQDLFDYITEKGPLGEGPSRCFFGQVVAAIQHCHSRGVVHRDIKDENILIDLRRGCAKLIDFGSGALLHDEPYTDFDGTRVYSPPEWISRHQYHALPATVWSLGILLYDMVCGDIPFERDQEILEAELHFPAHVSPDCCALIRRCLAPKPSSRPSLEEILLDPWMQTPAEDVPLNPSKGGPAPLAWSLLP
Chain of Mast/stem cell growth factor receptor Kit (P10721 whole entry): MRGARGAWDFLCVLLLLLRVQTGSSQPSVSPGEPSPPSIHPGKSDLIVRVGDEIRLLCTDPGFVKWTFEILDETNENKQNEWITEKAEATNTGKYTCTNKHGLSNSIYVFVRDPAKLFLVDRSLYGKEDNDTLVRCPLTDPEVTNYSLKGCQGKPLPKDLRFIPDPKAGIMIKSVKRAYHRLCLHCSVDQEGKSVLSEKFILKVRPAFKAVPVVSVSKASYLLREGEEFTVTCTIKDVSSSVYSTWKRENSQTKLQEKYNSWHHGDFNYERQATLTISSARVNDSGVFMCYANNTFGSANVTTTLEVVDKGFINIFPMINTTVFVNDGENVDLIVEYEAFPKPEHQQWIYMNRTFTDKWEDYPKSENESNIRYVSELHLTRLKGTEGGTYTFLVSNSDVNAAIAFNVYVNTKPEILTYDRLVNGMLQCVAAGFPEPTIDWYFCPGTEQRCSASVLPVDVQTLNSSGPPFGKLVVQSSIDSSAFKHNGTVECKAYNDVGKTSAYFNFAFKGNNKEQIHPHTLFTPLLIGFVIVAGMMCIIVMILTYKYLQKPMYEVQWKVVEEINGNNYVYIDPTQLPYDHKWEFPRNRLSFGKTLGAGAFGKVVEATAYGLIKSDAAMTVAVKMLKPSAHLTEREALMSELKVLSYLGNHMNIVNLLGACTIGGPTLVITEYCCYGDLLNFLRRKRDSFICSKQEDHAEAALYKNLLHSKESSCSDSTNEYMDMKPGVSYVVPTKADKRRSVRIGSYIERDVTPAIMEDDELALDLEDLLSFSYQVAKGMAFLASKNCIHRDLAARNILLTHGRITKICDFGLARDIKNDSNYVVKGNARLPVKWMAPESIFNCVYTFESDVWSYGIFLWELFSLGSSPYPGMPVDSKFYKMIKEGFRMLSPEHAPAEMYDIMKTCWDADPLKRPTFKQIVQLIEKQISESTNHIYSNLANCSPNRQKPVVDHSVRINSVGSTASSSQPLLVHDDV

## Cc1n[nH]c2ccc(-c3cncc(OCC(N)Cc4cccc(Cl)c4)c3)cc12 (configuration not stated)
[1]
  Ki: 1.58 µM (active)
[2]
  Ki: 1.26 µM (active)
[3]
  Ki: 0.01 µM (active)
[4]
  Ki: 0.00398 µM (active)
  pKi: 8.4
[5]
  Ki: > 1.58 µM (inactive)
[6]
  Ki: 0.01 µM (active)
[7]
  Ki: > 1.26 µM (inactive)
[8]
  Ki: 1.58 µM (active)
[9]
  Ki: 7.94 µM (active)

## O=C(O)C1Nc2c(O)cc(Cl)c([N+](=O)[O-])c2C2C=CCC12 (configuration not stated)
[10]
  AC50: 12.8 µM (active)

## CC(=O)NC1C(=O)N(CCN2CCOCC2)c2ccc(F)cc21 (configuration not stated)
[10]
  AC50: 12.3 µM (active)
Hexokinase HKDC1
  IC50: 9.43 µM (active)
[11]
  IC50: 33.4 µM (inactive)

## O=C(CCc1ccccc1)NNc1cc(N2CCCCC2)nc(N2CCCCC2)n1
[12]
  EC50: > 120 µM (not active)
[13]
  EC50: > 120 µM (not active)
[14]
  EC50: > 120 µM (not active)

## O=C1C=C(N2CCCCC2)c2ccccc2C1=O
[12]
  EC50: > 120 µM (not active)
[13]
  EC50: 8.27 µM (active)
[14]
  EC50: 9.02 µM (active)
Hexokinase HKDC1
  IC50: 1.34 µM (active)
[11]
  IC50: 5.32 µM (active)
